# Test results published in ChEMBL document CHEMBL1201862, “PubChem BioAssay data set” (2004).
# Activity calls are given as the source filed them.
# How the values were obtained:
# [1] = target: T1, Eukaryotic translation initiation factor 2-alpha kinase 3 (Homo sapiens, UniProt Q9NZJ5); test: Dose response cell-based high-throughput screening assay to measure PERK inhibition. [Related pubchem assays: 1416 ]; assay type: functional
# [2] = target: T1, Eukaryotic translation initiation factor 2-alpha kinase 3; test: Counterscreen assay for PERK inhibitors: Dose response cell-based high throughput screening assay to measure inhibition of PERK at 6 hours. [Related pubchem assays: 1522, 1416 ]; assay type: functional
# [3] = target: T2, Scavenger receptor class B member 1 (Mus musculus, UniProt Q61009); test: mouse SR-BI DiI-HDL uptake blockers – ldlA[mSR-BI] cells, fluorescence, cherry pick, dose response (AID 493194); assay type: functional, cell-based;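 also: cellular uptake of fluorescent DiI-labeled HDL measured as cell fluorescence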
# T2 sequence (Q61009 whole entry): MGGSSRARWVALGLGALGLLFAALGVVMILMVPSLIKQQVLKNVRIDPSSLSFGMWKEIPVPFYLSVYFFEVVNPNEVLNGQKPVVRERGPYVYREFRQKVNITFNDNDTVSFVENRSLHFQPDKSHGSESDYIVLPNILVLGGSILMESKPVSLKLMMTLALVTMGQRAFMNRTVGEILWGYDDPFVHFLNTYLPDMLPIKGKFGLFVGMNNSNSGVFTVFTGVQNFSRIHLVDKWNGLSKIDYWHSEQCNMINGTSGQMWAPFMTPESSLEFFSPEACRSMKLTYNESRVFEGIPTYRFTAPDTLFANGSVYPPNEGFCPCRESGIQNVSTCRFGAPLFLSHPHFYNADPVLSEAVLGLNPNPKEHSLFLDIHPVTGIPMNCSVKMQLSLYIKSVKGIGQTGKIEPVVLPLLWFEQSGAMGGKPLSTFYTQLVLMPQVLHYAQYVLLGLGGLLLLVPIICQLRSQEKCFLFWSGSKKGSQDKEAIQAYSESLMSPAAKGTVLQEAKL
# [4] = target: Large T antigen (Simian virus 40, UniProt P03070); assay type: functional, Betapolyomavirus macacae;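 also: Confirmatory-stage PubChem screen for compounds that inhibit SV40 T antigen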
# [5] = target: Guanyl-specific ribonuclease T1 (Aspergillus oryzae (strain ATCC 42149 / RIB 40), UniProt P00651); test: inhibition of ribonuclease T1 activity – biochemical, fluorescence polarization, 1536-well, counter-screen for TPT1 inhibitor project, dose response (AID 2167)
# [6] = target: T3, Voltage-gated N-type calcium channel alpha-1B subunit/Amyloid beta A4 precursor protein-binding family A member 1 (Homo sapiens, UniProt Q00975+Q02410); assay type: protein assay
# [7] = target: Likely tRNA 2'-phosphotransferase (Candida albicans (strain SC5314 / ATCC MYA-2876) (Yeast), UniProt Q5A7N4); test: inhibition of Candida TPT1 enzyme activity – biochemical, fluorescence polarization, dose response (AID 2160)
# [8] = target: T3, Voltage-gated N-type calcium channel alpha-1B subunit/Amyloid beta A4 precursor protein-binding family A member 1; assay type: protein assay; remark: listed apart in the source
# [9] = target: T4, Protein phosphatase methylesterase 1 (Homo sapiens, UniProt Q9Y570); test: Late stage results from the probe development effort to identify inhibitors of the protein methylesterase PME-1: Gel-based Activity-Based Protein Profiling (ABPP) IC50: Purified enzyme.; assay type: functional
# [10] = target: T4, Protein phosphatase methylesterase 1; test: endogenous PME-1 and serine hydrolase inhibition – cell lysate, mouse brain cytosol, FP-rhodamine, gel ABPP, selectivity assay for PME-1 inhibitor project, dose response, panel member PME-1 Assay Panel member description: Inhibition of endogenously expressed PME-1 (AID 2366)
# [11] = target: Eukaryotic translation initiation factor 4H (Homo sapiens, UniProt Q15056); test: eIF4H binding inhibition – biochemical, uHTS, fluorescence polarization, translation initiation inhibitor project, primary screen (AID 2012)
# [12] = target: DNA dC->dU-editing enzyme APOBEC-3A (Homo sapiens, UniProt P31941); test: Dose Response confirmation of small molecule APOBEC3A DNA Deaminase Inhibitors via a fluorescence-based single-stranded DNA deaminase assay. [Related pubchem assays (depositor defined):AID493011, AID493024]; assay type: functional
# [13] = target: Polyadenylate-binding protein 1 (Homo sapiens, UniProt P11940); test: blockers of PABP interaction with poly(A) – biochemical, fluorescence polarization, […] (AID 2014)
# [14] = target: DNA dC->dU-editing enzyme APOBEC-3G (Homo sapiens, UniProt Q9HC16); assay type: functional;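 also: Dose-response counterscreen measuring inhibition of APOBEC3G DNA deaminase activity, run while confirming APOBEC3A inhibitors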
# [15] = target: Genome polyprotein (dengue virus type 2, UniProt P29990); test: flavivirus cap methylation enzyme inhibition – biochemical, confirmation dose response, primary screen (AID 588689); assay type: functional
# [16] = target: T5, Fatty acid synthase (Homo sapiens, UniProt P49327); test: inhibition of human FAS-TE enzyme activity – biochemical, endpoint fluorescence intensity, uHTS hits, dose response (AID 624327); assay type: functional;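 also: fluorescence from hydrolysis of an O-methyl fluorescein acyl ester substrate by the enzyme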
# [17] = target: T6, Coagulation factor XII (Homo sapiens, UniProt P00748); assay type: functional;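 also: activated factor XIIa alpha cleaving a fluorogenic AMC peptide substrate; inhibitor potency from loss of enzyme activity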
# T6 sequence (P00748 whole entry): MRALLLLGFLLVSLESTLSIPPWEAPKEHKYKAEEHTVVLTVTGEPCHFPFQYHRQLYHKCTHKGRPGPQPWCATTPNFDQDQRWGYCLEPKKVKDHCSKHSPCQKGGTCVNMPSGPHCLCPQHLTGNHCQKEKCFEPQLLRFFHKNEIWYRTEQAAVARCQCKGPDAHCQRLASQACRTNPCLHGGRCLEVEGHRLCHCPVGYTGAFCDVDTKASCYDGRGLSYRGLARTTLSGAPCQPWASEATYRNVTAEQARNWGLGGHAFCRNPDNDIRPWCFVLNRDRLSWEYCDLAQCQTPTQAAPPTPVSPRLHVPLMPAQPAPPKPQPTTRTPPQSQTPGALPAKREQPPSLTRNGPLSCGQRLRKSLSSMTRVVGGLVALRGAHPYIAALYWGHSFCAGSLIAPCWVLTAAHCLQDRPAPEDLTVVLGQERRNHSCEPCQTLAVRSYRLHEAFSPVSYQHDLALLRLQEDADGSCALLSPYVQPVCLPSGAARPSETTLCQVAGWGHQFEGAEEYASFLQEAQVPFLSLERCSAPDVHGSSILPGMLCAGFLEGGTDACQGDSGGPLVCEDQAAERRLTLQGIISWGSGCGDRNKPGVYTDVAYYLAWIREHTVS
# [18] = target: T5, Fatty acid synthase; test: inhibition of human FAS-TE enzyme activity – biochemical, kinetic fluorescence intensity, dose response (AID 624326); assay type: functional;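 also: rate of fluorescence rise from hydrolysis of a fluorogenic O-methyl fluorescein ester substrate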
# [19] = target: DNA damage-inducible transcript 3 protein (Mus musculus, UniProt P35639); assay type: functional, Cricetulus griseus
# [20] = target: X-box-binding protein 1 (Homo sapiens, UniProt P17861); assay type: functional, Cricetulus griseus;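 also: confirmatory dose-response counter-screen serving a CHOP assay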
# [21] = target: Prothrombin (Homo sapiens, UniProt P00734); test: Thrombin 1536 HTS Dose Response Confirmation. [Related pubchem assays: 1046 (Thrombin 1536 HTS; hits were confirmed in this assay)]; assay type: functional
# [22] = target: Neuropeptides B/W receptor type 1 (Homo sapiens, UniProt P48145); test: human NPBW1 receptor blockade, IC50 – cell-based, fluorescence, dose response, late-stage follow-up (AID 463251); assay type: functional
# [23] = target: Melanin-concentrating hormone receptor 1 (Homo sapiens, UniProt Q99705); test: Late-stage fluorescence-based counterscreen for antagonists of the G-protein coupled receptor 7 (GPR7): cell-based dose response assay to identify antagonists of the melanin-concentrating hormone receptor 1 (MCHR1). [Related pubchem assays (depositor defined):AID1861, AID1880, AID1952, AID2148, AID2251, AID2257, AID485339]; assay type: functional;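 also: stimulated with 30 nM MCH peptide agonist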
# [24] = target: T7, Hexokinase HKDC1 (Homo sapiens, UniProt Q2TB90); test: inhibition of HKDC1 glucose phosphorylation – biochemical, W721R variant, dose response (AID 504729); assay type: functional
# T7 sequence (Q2TB90 whole entry): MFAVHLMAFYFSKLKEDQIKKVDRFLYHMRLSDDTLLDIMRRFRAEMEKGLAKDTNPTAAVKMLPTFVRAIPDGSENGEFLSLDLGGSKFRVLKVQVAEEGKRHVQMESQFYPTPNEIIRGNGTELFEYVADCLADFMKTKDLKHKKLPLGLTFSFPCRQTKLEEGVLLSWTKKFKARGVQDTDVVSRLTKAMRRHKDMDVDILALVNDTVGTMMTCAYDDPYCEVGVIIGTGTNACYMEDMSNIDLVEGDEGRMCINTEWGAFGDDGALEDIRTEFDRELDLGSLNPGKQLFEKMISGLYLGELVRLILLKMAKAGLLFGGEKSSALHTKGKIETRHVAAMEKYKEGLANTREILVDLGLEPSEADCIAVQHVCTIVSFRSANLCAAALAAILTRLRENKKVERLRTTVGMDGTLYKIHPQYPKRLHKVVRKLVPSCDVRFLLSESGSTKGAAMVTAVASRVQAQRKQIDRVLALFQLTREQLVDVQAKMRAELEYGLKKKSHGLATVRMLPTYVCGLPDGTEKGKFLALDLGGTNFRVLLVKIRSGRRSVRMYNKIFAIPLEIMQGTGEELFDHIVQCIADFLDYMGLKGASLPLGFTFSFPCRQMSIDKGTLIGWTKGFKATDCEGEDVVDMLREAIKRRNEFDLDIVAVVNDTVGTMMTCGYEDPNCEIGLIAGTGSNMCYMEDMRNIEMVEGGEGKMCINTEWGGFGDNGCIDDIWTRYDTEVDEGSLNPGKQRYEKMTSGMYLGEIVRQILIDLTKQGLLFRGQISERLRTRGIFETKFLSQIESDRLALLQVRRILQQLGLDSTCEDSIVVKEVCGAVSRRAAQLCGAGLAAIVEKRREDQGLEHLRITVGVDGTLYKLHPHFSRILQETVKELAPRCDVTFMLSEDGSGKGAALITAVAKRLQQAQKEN
# [25] = test system: INS1; test: INS-1E survival protection against cytokine death – cell-based, luminescence, retest, dose response (AID 449756); assay type: functional; details: Rattus norvegicus;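 also: cell death triggered by IL-1 beta plus TNF-alpha plus IFN-gamma mixture; protective hits raise ATP signal compared with cytokine alone wells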
# [26] = target: C-C chemokine receptor type 6 (Homo sapiens, UniProt P51684); test: antagonism of CCR6 beta-arrestin recruitment – cell-based, luminescent beta-arrestin readout, dose response (AID 504728); assay type: functional
# [27] = target: Induced myeloid leukemia cell differentiation protein Mcl-1 (Homo sapiens, UniProt Q07820); assay type: functional
# [28] = target: Beta-galactosidase (Escherichia coli, UniProt Q8VNN2); test: detection-enzyme interference by beta-gal modulators – biochemical, E. coli enzyme, set 3, artefact control for CCR6 antagonist project, dose response (AID 504712); assay type: functional
# [29] = test system: HeLa; test: viability loss in HeLa cells – cell-based, 24 h, cherry-picked samples, cytotoxicity control, dose response (AID 504726); assay type: functional; details: Homo sapiens;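 also: potency for cytotoxicity as loss of luminescence signal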
# [30] = target: Eukaryotic translation initiation factor 4E (Mus musculus, UniProt P63073); test: blockers of eIF4G binding by eIF4E – biochemical, TR-FRET, dose response (AID 855); assay type: functional;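 also: potency for disrupting eIF4E binding to eIF4GI seen as loss of FRET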
# [31] = target: Dual specificity protein phosphatase 3 (Homo sapiens, UniProt P51452); test: inhibition constants for human DUSP3 – biochemical, colorimetric, SAR follow-up (AID 2004)
# Chain of DNA damage-inducible transcript 3 protein (P35639 whole entry): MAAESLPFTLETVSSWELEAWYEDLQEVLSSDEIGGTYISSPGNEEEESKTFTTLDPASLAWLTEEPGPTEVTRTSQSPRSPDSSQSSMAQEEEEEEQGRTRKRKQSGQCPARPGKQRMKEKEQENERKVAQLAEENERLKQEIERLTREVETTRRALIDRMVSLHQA
# T5 sequence (P49327 whole entry): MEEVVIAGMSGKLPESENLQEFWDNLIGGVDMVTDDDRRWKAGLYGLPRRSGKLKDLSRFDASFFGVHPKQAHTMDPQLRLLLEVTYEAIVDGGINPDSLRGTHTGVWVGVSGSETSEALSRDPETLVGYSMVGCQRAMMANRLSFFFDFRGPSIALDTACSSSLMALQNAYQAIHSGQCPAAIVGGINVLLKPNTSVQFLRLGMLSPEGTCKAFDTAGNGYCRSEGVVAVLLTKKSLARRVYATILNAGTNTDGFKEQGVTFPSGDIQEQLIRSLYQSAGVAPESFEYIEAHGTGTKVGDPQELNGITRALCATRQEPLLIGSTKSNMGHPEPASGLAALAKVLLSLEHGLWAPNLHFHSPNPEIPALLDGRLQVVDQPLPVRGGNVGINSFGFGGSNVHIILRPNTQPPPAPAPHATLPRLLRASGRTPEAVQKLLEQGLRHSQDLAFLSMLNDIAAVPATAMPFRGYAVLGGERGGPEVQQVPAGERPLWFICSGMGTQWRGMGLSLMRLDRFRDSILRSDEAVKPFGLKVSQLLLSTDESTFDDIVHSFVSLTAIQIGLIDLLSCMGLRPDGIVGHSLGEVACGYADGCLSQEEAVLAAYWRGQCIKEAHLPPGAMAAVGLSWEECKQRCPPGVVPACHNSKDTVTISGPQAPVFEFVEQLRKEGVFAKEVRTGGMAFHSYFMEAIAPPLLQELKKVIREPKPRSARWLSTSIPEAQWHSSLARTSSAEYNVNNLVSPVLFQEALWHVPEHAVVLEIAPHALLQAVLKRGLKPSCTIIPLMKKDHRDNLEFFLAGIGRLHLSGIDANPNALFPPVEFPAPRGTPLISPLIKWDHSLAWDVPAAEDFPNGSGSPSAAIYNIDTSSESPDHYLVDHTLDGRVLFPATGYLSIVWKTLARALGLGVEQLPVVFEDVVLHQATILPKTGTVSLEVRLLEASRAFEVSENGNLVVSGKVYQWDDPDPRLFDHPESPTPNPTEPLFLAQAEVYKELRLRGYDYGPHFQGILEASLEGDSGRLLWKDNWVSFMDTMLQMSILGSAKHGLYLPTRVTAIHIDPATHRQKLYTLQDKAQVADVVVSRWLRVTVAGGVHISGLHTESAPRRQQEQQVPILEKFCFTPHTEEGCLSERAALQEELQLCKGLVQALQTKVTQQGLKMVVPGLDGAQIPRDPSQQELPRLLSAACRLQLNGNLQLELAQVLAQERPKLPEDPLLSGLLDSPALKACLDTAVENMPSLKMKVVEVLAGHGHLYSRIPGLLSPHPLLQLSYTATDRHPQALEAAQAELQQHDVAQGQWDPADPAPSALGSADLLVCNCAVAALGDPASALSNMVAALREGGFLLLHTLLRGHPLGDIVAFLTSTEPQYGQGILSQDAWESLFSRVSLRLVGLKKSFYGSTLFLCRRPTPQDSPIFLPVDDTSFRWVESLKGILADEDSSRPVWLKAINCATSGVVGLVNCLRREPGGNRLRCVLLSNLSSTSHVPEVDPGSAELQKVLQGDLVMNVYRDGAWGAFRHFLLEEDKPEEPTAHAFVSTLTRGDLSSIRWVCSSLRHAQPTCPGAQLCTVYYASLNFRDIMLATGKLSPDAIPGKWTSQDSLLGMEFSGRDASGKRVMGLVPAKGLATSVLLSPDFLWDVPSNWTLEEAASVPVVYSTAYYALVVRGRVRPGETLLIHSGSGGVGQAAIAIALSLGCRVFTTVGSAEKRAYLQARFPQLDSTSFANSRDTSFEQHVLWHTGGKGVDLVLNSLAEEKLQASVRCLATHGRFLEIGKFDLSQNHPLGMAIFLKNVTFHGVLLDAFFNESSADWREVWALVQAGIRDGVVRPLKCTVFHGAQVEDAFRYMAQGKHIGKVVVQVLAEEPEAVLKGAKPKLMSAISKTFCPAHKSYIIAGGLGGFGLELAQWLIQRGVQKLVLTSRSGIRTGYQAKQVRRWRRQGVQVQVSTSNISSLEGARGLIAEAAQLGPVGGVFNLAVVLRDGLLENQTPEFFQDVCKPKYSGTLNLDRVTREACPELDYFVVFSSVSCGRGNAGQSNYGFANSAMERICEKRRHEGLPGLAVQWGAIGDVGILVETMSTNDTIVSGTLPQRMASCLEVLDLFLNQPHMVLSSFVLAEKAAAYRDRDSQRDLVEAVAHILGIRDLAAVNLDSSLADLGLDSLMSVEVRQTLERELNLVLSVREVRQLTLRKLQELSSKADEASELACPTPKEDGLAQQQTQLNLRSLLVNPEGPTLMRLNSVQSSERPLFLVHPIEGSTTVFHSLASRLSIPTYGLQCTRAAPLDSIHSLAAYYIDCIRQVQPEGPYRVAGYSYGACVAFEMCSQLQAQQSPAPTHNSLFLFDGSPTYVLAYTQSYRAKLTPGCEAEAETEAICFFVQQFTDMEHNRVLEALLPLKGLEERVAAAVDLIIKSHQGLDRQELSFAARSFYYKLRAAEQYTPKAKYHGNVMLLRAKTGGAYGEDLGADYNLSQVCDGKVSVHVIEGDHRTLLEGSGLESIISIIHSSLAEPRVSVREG
# T4 sequence (Q9Y570 whole entry): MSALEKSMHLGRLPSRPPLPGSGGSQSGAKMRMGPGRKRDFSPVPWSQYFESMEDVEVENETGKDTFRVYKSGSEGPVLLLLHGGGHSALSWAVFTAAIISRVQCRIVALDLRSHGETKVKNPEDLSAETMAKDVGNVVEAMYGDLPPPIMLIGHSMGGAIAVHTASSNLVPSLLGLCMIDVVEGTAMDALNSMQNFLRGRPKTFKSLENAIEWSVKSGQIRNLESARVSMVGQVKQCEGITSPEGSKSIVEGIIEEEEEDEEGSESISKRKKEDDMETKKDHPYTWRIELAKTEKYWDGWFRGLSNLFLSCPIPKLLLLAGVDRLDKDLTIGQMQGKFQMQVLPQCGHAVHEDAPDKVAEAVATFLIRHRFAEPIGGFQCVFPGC
# T1 sequence (Q9NZJ5 whole entry): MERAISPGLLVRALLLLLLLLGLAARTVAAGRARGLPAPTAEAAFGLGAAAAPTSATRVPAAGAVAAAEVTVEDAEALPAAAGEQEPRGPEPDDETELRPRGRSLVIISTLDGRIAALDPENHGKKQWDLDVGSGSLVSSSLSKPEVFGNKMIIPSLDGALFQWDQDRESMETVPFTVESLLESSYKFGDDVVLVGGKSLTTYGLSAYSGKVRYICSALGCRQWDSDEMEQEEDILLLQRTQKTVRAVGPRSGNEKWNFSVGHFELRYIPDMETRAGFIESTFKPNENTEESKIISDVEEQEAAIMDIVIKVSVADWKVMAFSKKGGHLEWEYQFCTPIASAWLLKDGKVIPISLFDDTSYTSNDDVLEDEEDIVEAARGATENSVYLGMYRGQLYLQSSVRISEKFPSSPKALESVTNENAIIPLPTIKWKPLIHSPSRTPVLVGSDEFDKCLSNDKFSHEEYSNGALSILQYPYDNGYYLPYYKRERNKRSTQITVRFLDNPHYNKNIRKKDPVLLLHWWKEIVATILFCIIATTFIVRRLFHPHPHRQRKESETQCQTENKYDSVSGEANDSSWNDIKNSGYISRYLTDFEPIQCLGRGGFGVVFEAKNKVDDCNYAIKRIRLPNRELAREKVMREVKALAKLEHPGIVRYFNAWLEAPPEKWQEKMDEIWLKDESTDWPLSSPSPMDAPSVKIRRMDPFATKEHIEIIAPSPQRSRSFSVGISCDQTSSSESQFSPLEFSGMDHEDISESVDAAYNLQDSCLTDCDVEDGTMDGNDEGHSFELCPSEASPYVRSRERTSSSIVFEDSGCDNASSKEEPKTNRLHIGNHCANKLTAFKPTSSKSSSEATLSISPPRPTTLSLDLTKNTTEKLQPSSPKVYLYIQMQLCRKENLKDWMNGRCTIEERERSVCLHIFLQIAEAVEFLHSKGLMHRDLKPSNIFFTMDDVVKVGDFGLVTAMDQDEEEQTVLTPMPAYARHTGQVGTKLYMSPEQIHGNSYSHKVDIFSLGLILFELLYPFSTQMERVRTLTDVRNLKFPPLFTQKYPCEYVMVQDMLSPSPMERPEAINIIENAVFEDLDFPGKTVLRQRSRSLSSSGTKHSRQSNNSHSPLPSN
# Chain of Genome polyprotein (P29990 2492-3391 limits assumed): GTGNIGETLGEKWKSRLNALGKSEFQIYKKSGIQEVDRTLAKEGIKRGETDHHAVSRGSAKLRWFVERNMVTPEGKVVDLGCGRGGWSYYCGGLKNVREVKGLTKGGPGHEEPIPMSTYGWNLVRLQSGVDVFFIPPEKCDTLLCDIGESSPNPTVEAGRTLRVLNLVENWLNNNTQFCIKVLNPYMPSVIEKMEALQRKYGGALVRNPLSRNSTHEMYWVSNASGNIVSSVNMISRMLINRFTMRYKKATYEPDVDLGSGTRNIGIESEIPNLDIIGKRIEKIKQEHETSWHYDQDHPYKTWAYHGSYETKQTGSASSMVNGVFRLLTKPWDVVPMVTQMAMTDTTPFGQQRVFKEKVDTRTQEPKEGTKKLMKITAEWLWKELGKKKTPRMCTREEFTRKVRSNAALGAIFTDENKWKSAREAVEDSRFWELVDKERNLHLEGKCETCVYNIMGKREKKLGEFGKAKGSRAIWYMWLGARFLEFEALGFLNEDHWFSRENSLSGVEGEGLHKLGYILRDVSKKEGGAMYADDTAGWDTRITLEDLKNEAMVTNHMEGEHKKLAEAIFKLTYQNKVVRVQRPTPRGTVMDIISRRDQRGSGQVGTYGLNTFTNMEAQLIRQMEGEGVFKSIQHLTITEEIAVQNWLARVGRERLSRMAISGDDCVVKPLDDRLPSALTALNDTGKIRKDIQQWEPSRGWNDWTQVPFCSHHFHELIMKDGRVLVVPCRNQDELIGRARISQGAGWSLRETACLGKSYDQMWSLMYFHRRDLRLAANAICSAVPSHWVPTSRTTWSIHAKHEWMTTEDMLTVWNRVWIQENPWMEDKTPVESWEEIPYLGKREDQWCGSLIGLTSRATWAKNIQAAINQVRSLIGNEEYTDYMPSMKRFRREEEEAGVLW
compound,measurement,setting,value
CC(=O)c1ccc(S(=O)(=O)N2CCN(CC#N)CC2)cc1,EC50,[1],> 55.7 µM (not active)
same,EC50,[2],> 55.7 µM (not active)
CC(OC(=O)c1cccc(NS(C)(=O)=O)c1)C(=O)Nc1ccc(N2CCOCC2)cc1 (configuration not stated),AC50,[3],1.56 µM (active)
CC1=C(C#N)C(=O)N(C2CCS(=O)(=O)C2)C(=O)/C1=C\c1ccco1 (configuration not stated),IC50,[4],7.93 µM (active)
same,IC50,[5],> 55.7 µM (not active)
same,IC50,[6],> 56.8 µM (not active)
same,IC50,[7],0.142 µM (active)
same,IC50,[8],4.68 µM (active)
CS(=O)(=O)C(C#N)Cc1cccn1S(=O)(=O)c1ccccc1 (configuration not stated),IC50,[9],> 20 µM (not active)
same,IC50,[10],> 20 µM (inactive)
COCCN1C(NCCCOC(C)C)=N[C@@H](c2ccccc2)C(C(=O)OC)=C1C,IC50,[11],> 100 µM (inactive)
same,IC50,[12],5.67 µM (active)
same,IC50,[13],8.01 µM (active)
same,IC50,[14],4.32 µM (active)
Cc1ccc(C)c(S(=O)(=O)ON2C(=O)c3ccccc3C2=O)c1,IC50,[15],> 100 µM (active)
same,IC50,[16],1.72 µM (active)
same,IC50,[17],2.59 µM (active)
same,IC50,[18],3.7 µM (active)
same,Absolute IC50 (CHOP),[19],10 µM
same,Absolute IC50 (XBP1),[20],10 µM
same,IC50,[21],1.57 µM (active)
CCOC(=O)c1cccc(-n2ncc(Cl)c(Oc3ccc(OC)cc3)c2=O)c1,IC50,[22],1.1 µM (active)
same,IC50,[23],3.7 µM (active)
Cc1ccc(S(=O)(=O)/N=C2/C=C(Sc3nc[nH]n3)C(=O)c3ccccc32)cc1,IC50,[24],1.8 µM (active)
same,AC50,[25],6.84 µM (active)
same,IC50,[26],3.12 µM (active)
same,IC50,[27],19.7 µM (active)
same,IC50,[28],> 66.6 µM (inactive)
same,AC50,[29],23.1 µM (active)
same,IC50,[30],> 64 µM (inactive)
same,Absolute IC50 (CHOP),[19],10 µM
S=C(NCCN1CCOCC1)Nc1ccccc1,Ki,[31],64.3 µM (inactive)
